# Source: patent US20070225213A1, “Nucleic acid carriers for delivery of therapeutic agents” (priority 2006, published 2007)
# How the values were obtained:
# [1] = Column chromatography determination of drug loading limit of NAC-drug; format: physicochemical; details: Drug only (MTN, no carrier)
# Description: In a dosage form suitable for parenteral administration, the nucleic acid can be combined with the drug in an aqueous formulation of saline, dextrose or other suitable aqueous vehicle suitable for administration. It is preferred that the drug and the nucleic acid are combined in water or other suitable medium, prior to dilution in saline or media, in order to prevent inhibition of drug binding to the nucleic acid. The dosage form can be sterilized by a variety of means, and can optionally take the form of a concentrate that can be diluted in saline or other suitable vehicle prior to injection. It is preferred to minimize the amount of free drug in the injectable solution, such that the mass ratio of nucleic acid to drug is sufficient to bind most of the drug, and to limit free drug in the bloodstream. […] The percentage loading possible for other nucleic acid binding drugs will vary depending on their binding characteristics, and can be determined by column chromatography, spectrophotometry, and cytotoxicity assay methods as described herein. […]
# Determination of drug loading limit of mitoxantrone (MTN) in a nucleic acid carrier (NAC) using a 2.5×9 cm G25 column (EX031904) and herring sperm DNA (HSDNA approx. range 10-100 bp Sigma-Aldrich). […] Collected 5 ml and checked absorbance scan of 0.2 ml sample on Synergy HT1. […] Collected 7.5 ml and read absorbance scan of 0.2 ml sample. […]
# [2] = in vivo, iv
# Description: Differential targeting and distribution of NAC-MTN or MTN in major organs of the mouse. NAC-MTN or MTN was administered intravenously to mice and detected in major organs after 24 hours. […] Total MTN in tissues was quantified by MTN fluorescence, normalized against total tissue weight, and reported as MTN mg/g tissue.
# Mice n=2, were injected i.v. with repeated dose of either NAC-MTN or MTN alone. MTN administered was the same for each mouse.
# A 0.4 ml volume of each NAC-MTN or MTN formulation was prepared for injection in HBSS or H2O (Hanks Buffered Saline, Sigma-Aldrich) as indicated below. For NAC-MTN injection, 45 ul 10 mg/ml MTN was diluted first in 325 ul of HBSS solution, then 180 ul of herring sperm DNA (HSDNA, 50 mg/ml stock neutralized, 0.2 um filtered) was added to give a turquoise blue color. […] In MTN injection, 45 ul 10 mg/ml MTN was diluted in 385 ul of H2O.
# On day 1, white mice, n=2, 24 g each, were tail vein injected by a micro-catheter with 0.16 ml at 14:50 or 0.15 ml at 15:30, respectively of either NAC-MTN or MTN. A second injection was followed at 17:00 and 16:50 of 0.2 ml each of NAC-MTN or MTN. To quantify total MTN retained, mouse urine was collected after 1st and 2nd injection. Total MTN was assayed in mouse urine immediately after 1st injection and second injection by reading MTN fluorescence 620/680 s=50 of a 0.2 ml sample in a styrene well, bottom read. […] A third dose of 0.2 ml was given the next morning, 22 hours after 1st injection (day 2), of either NAC-MTN or MTN. […] Twenty four hours after first injection (day 2), mice were sacrificed and MTN assayed in major organs. The liver, kidneys, heart, and lung were homogenized at high speed 50,000 rpm, and treated with 1% SDS (sodium dodecyl sulfate). The homogenates were frozen twice and centrifuged for 30 minutes at 14000 rcf.
compound,measurement,setting,value
"O=C1c2c(O)ccc(O)c2C(=O)c2c(NCCNCCO)ccc(NCCNCCO)c21 [MTN, mitoxantrone]",G25 Column Results,[1],"Single band, slow"
same,toxic effects in mouse,[2],Neither mouse showed any toxic effects
